Source: ChEMBL document CHEMBL1201862, “PubChem BioAssay data set” (2004)
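Dose response: 5 concentrations. Exposure: 48 h. Format: 96-well plates. Endpoint: linear interpolation; highest concentration if not reached. Abbreviation: GI50, concentration required for 50% inhibition of growth.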 Active and inactive are the calls of the source. Rule as the data show it: active = GI50 up to about 1.1 µM and inactive = higher.

How the values were obtained:
Assay in all cases: inhibition of tumour cell growth, NCI panel, 48 h
[1] = tested on: 786-0
[2] = tested on: ACHN
[3] = tested on: MDA-N
[4] = tested on: A549
[5] = tested on: UACC-257
[6] = tested on: SK-MEL-28
[7] = tested on: SNB-19
[8] = tested on: NCI-H226
[9] = tested on: HL-60
[10] = tested on: RPMI-8226
[11] = tested on: SK-OV-3
[12] = tested on: HOP-92
[13] = tested on: DU-145
[14] = tested on: KM12
[15] = tested on: HCT-15
[16] = tested on: OVCAR-3
[17] = tested on: CCRF-CEM
[18] = tested on: SF-539
[19] = tested on: SK-MEL-5
[20] = tested on: BT-549
[21] = tested on: A498
[22] = tested on: Hs-578T
[23] = tested on: UACC-62
[24] = tested on: NCI-H23
[25] = tested on: MDA-MB-435
[26] = tested on: Malme-3M
[27] = tested on: OVCAR-5
[28] = tested on: MCF7
[29] = tested on: K562
[30] = tested on: RXF 393
[31] = tested on: NCI-H460
[32] = tested on: HT-29
[33] = tested on: UO-31
[34] = tested on: U-251
[35] = tested on: HCT-116
[36] = tested on: PC-3
[37] = tested on: SW-620
[38] = tested on: MOLT-4
[39] = tested on: OVCAR-8
[40] = tested on: HOP-62
[41] = tested on: SR
[42] = tested on: TK-10
[43] = tested on: HCC 2998
[44] = tested on: EKVX
[45] = tested on: SNB-75
[46] = tested on: IGROV-1
[47] = tested on: M14
[48] = tested on: SN12C
[49] = tested on: NCI/ADR-RES
[50] = tested on: SF-295
[51] = tested on: SF-268
[52] = tested on: CAKI-1
[53] = tested on: SK-MEL-2
[54] = tested on: LOX IMVI
[55] = tested on: MDA-MB-231
[56] = tested on: NCI-H522
[57] = tested on: COLO 205
[58] = tested on: OVCAR-4

Measured: GI50

CON(C)C(=O)C(C)NC(=O)OCc1ccccc1 (stereo not drawn)
inactive: [1] > 100 µM | [2] > 100 µM | [3] > 100 µM | [4] > 100 µM | [5] > 100 µM | [6] > 100 µM | [7] > 100 µM | [8] > 100 µM | [9] > 100 µM | [10] > 100 µM | [11] > 100 µM | [12] > 100 µM | [13] > 100 µM | [14] > 100 µM | [16] > 100 µM | [17] > 100 µM | [18] > 100 µM | [19] > 100 µM | [20] > 100 µM | [21] > 100 µM | [22] > 100 µM | [23] > 100 µM | [24] > 100 µM | [25] > 100 µM | [26] > 100 µM | [27] > 100 µM | [28] > 100 µM | [29] > 100 µM | [30] > 100 µM | [31] > 100 µM | [32] > 100 µM | [33] > 100 µM | [34] > 100 µM | [35] > 100 µM | [36] > 100 µM | [37] > 100 µM | [38] > 100 µM | [39] > 100 µM | [40] > 100 µM | [41] > 100 µM | [42] > 100 µM | [43] > 100 µM | [44] > 100 µM | [45] > 100 µM | [46] > 100 µM | [47] > 100 µM | [48] > 100 µM | [49] > 100 µM | [50] > 100 µM | [51] > 100 µM
> 100 µM: [15]

C=C(C1=CC(=O)C(C)(C)O1)[C@@H]1CC=C([C@@H]2CC[C@H]3[C@@]2(C)CC[C@H]2C(C)(C)C(=O)[C@H](OC(=O)CC(C)(O)CC(=O)O)C[C@]32C)[C@H](O)O1 (stereo partly drawn)
inactive: [1] 11.1 µM | [2] 14 µM | [3] 13.9 µM | [4] 17.6 µM | [52] 17.2 µM | [5] 15.2 µM | [7] 25.4 µM | [8] 16.3 µM | [9] 17.7 µM | [10] 2.48 µM | [11] 19.2 µM | [12] 12.7 µM | [13] 16.7 µM | [14] 14.1 µM | [16] 11.9 µM | [17] 2.19 µM | [18] 13 µM | [19] 12.5 µM | [20] 2.06 µM | [21] 13 µM | [22] 23.9 µM | [23] 12.1 µM | [24] 13.6 µM | [25] 15.1 µM | [26] 13.4 µM | [27] 14.5 µM | [53] 12.9 µM | [28] 9.84 µM | [29] 25.7 µM | [31] 15.9 µM | [32] 16.8 µM | [33] 13.6 µM | [34] 13.5 µM | [35] 12.9 µM | [36] 13.2 µM | [37] 10.7 µM | [38] 4.14 µM | [39] 13.4 µM | [40] 21.1 µM | [41] 12.6 µM | [54] 13.1 µM | [42] 27.4 µM | [55] 17.4 µM | [44] 15.3 µM | [46] 12.4 µM | [47] 13.5 µM | [48] 15.3 µM | [56] 11.4 µM | [57] 12.5 µM | [49] 19 µM | [50] 36.4 µM | [51] 10.9 µM
13.3 µM: [15]
active: [30] 0.106 µM

Cc1csc2c(=O)n(C3OC(CO)C(O)C3O)c(=O)[nH]c12 (stereo not drawn)
inactive: [1] > 100 µM | [2] > 100 µM | [3] > 100 µM | [4] > 100 µM | [52] > 100 µM | [5] > 100 µM | [6] > 100 µM | [7] > 100 µM | [8] > 100 µM | [9] > 100 µM | [10] > 100 µM | [12] > 100 µM | [13] > 100 µM | [14] > 100 µM | [16] > 100 µM | [17] > 100 µM | [58] > 100 µM | [18] > 100 µM | [19] > 100 µM | [20] > 100 µM | [21] > 100 µM | [22] > 100 µM | [24] > 100 µM | [25] > 100 µM | [26] > 100 µM | [27] > 100 µM | [28] > 100 µM | [29] > 100 µM | [30] > 100 µM | [31] > 100 µM | [32] > 100 µM | [33] > 100 µM | [34] > 100 µM | [35] > 100 µM | [36] > 100 µM | [37] > 100 µM | [38] > 100 µM | [39] > 100 µM | [40] > 100 µM | [41] > 100 µM | [54] > 100 µM | [42] 39.5 µM | [55] > 100 µM | [44] > 100 µM | [45] > 100 µM | [46] > 100 µM | [47] > 100 µM | [48] > 100 µM | [56] > 100 µM | [57] > 100 µM | [49] > 100 µM | [50] > 100 µM | [51] > 100 µM
